Measured values published in patent publication US20100292091A1, “MARA FAMILY HELIX-TURN-HELIX DOMAINS AND THEIR METHODS OF USE” (Trustees of Tufts College, priority 1998, published 2010).
Structures can show the parent of a compound that is named as a salt.

Tests used:
M. smegmatis mc^2155 = format: cell-based, Mycobacterium smegmatis
E. coli BL21 = assay: Antibiotic gradient plate susceptibility of E. coli transformants with plasmids bearing E. coli mar genes; format: cell-based, Escherichia coli
From the text: PCR oligonucleotide primers were used to prepare a wild-type marA amplicon from E. coli AG100 (A. M. George, et al, J. Bacteriol., 1983, 155:531-540) chromosomal DNA, based on the annotated sequence (S. P. Cohen, et al. J. Bacteriol., 1993, 175:1484-1492). The oligonucleotide primers corresponded with nucleotide positions 1893 to 1910 and 2265 to 2282 and contained terminal EcoRI restriction enzyme sites to allow insertion of marA in frame with the hsp60 mycobacterial heat shock promoter resident on the E. coli-Mycobacterium shuttle plasmid pMV261 (W. R. Jacobs, et al. Microbiol. Immunol., 1990, 155:153-160). […] These mutant marA genes were ligated to pMV261 and pET13a for testing in M. smegmatis and E. coli, respectively. Plasmids were introduced into E. coli and M. smegmatis mc^2155 by electroporation with a Gene Pulser transfection apparatus (Bio-Rad. Richmond, Calif.) and selected on kanamycin (10 or 25 μg/ml).
To obtain support for the notion that the resistance phenotype was a direct result of MarA activity in the cell, insertional mutants targeted to the first helix-turn-helix domain (HTH1) (M. N. Alekshun, et al. Chemother, 41:2067-2075) of the MarA protein were constructed. […] A double-stranded synthetic oligonucleotide with compatible ends was ligated to the NheI sites to produce two distinct insertional mutants interrupting each of the two putative alpha-helical regions (FIG. 1). These mutated genes were cloned into pMV261, as described above, for susceptibility testing in M. smegmatis at 37° C. They were also expressed from the isopropyl-β-D-thiogalactopyranoside (IPTG)-regulated T7 promoter resident on plasmid pET13a for testing in E. coli BL21 (Studier et al. 1990. Methods Enzymol. 185:60). Insertional inactivation of MarA at either helix A or helix B of the first HTH abolished the multidrug resistance phenotype in both E. coli and M. smegmatis the (Table 3 and 4).

[1] = transformant pEC10 (pET13::marA), same gradients
[2] = transformant pET13a (vector), gradient (µg/ml) CML 2.0, TET 1.0, AMP 3.0, NAL 1.0

Row | SMILES | resistance compared to the microbe with vector alone (M. smegmatis mc^2155) | % Gowth in antibiotic gradient (E. coli BL21; [1]) | % Gowth in antibiotic gradient (E. coli BL21; [2]) | change in susceptibility in the presence of marA (M. smegmatis mc^2155) | further results
1 | NNC(=O)c1ccncc1 [INH, isoniazid] | increased resistance | – | – | – | fold increase of resistance in the presence of marA (M. smegmatis mc^2155): 2.5 fold
2 | CC1(C)S[C@@H]2[C@H](NC(=O)[C@H](N)c3ccccc3)C(=O)N2[C@H]1C(=O)O [AMP, ampicillin] | – | 11 ± 2.0% | 2 ± 1.1% | – | –
3 | CN(C)[C@@H]1C(O)=C(C(N)=O)C(=O)[C@@]2(O)C(O)=C3C(=O)c4c(O)cccc4[C@@](C)(O)[C@H]3C[C@@H]12 [TET, tetracycline] | – | 100% | 33 ± 1.0% | – | % Gowth in antibiotic gradient (E. coli BL21; {}): 33 ± 1.4%
4 | O=C(N[C@H](CO)[C@H](O)c1ccc([N+](=O)[O-])cc1)C(Cl)Cl [CML, chloramphenicol] | increased resistance | 100% | 20 ± 1.1% | – | fold increase of resistance in the presence of marA (M. smegmatis mc^2155): two-fold
5 | CCn1cc(C(=O)O)c(=O)c2cc(F)c(N3CCNCC3)cc21 [Nor, norfloxacin] | – | – | – | some increased susceptibility | –
6 | CCn1cc(C(=O)O)c(=O)c2ccc(C)nc21 [NAL, nalidixic acid] | – | 100% | 17 ± 0.8% | Little if any change in susceptibility | –
7 | CC[C@@H](CO)NCCN[C@@H](CC)CO [ETM, ethambutol] | increased resistance | – | – | – | fold increase of resistance in the presence of marA (M. smegmatis mc^2155): 1.5 fold
8 | CO[C@H]1/C=C/O[C@@]2(C)Oc3c(C)c(O)c4c(O)c(c(/C=N/N5CCN(C)CC5)c(O)c4c3C2=O)NC(=O)/C(C)=C\C=C\[C@H](C)[C@H](O)[C@@H](C)[C@@H](O)[C@@H](C)[C@H](OC(C)=O)[C@@H]1C [RIF, rifampin] | Increased resistance | – | – | – | resistance in the presence of vector alone (M. smegmatis mc^2155): increased
9 | COS(=O)(=O)[O-].C[n+]1c2ccccc2nc2ccccc21 [phenazine methosulfate] | – | – | – | Little if any change in susceptibility | –
10 | C[C@@H]1CN(c2c(F)c(N)c3c(=O)c(C(=O)O)cn(C4CC4)c3c2F)C[C@H](C)N1 [sparfloxacin] | – | – | – | Little if any change in susceptibility | –
11 | [H]/N=C(/N)N[C@H]1[C@H](O)[C@@H](O)[C@H](O[C@@H]2O[C@@H](C)[C@](O)(C=O)[C@H]2O[C@@H]2O[C@@H](CO)[C@H](O)[C@@H](O)[C@@H]2NC)[C@@H](N/C(N)=N\[H])[C@@H]1O [streptomycin, streptomycin sulfate] | – | – | – | some increased susceptibility | –
